# Experimental data: US20230226047A1, “COMBINATION THERAPY FOR TREATMENT OF CANCERS” (Health Research, Inc., priority 2019, published 2023)
# Entries after “also recorded” stand apart in the source; their conditions may differ.
# What was measured:
# C42 cells = assay: Flow cytometry of MHC expression after MCTP-39 and IFNg treatment, human C42 cells; format: cell-based; conditions: combined treatment with MCTP-39 and IFNg, FIG. 7A
# Procedure: (§1) Cell proliferation: Knock down of WHSC1 in C4-2 and TRAMP C-2 cells is discussed in previous sections. Cells were counted at 48, 96 and 144 hours. For pharmacological inhibition, cells either C4-2 or TRAMP C2 were seeded overnight at 4×10^3 cells per 100 μl media in a 96 well plate, the following day cells were treated with vehicle control or different concentrations of MCTP-39 (0-10 μM) for 48 hours. After 48 hours, C4-2 or TRAMP C-2 cells were either counted or used for staining with MHCI/II antibodies. Briefly cells were detached using trypsin and washed with FACS buffer for 5 minutes at 300 g. The pellet was resuspended in FACS buffer and stained with MHC-I/II antibodies for 20 minutes at 4 C. After incubation, cells were washed with FACS buffer 2× and resuspended in 200 μl of FACS buffer before acquiring the data on a flow cytometer.
# [1] = tested on: TRAMP C2 cells grafted in NSG mice; assay: TRAMP C2 subcutaneous graft in immunocompromised NSG mice; format: in vivo, mouse; conditions: 10 mg/kg, four weeks, p=0.1461, permutation test, FIG. 8B
# Procedure: (§2) Immunotherapy in prostate cancer (PCa) lags behind the progresses obtained in other cancer types partially because of its limited immune infiltration. While a few studies reported increased homing of immune cells in response to androgen deprivation therapy (ADT), the mechanism by which this occurs is still poorly understood. Using TCGA PCa RNASeq data patients were divided into top/bottom 30% based on the expression of WHSC1 and DFS was calculated for both groups. Publicly available ChIPSeq data were obtained from Cistrome and integrated with the available RNASeq data. RNASeq, ATACSeq and EPIC Infinium MethylArrays were analyzed using R Bioconductor packages comparing C42 cells with or without stable knockdown on WHSC1. Flow cytometry was used to measure MHC levels, MHC-bound OVA and tumor infiltration. C57B6 and NSG mice were subcutaneously grafted with TRAMP C2 cells and treated with MCTP39 (10 mg/kg); tumor size was monitored over time and curves compared using permutation analyses. All analyses use a significance threshold of 0.05.
# Mice and in vivo experiments: Male C57B/6J mice (6-8 weeks of age) and NSG mice (10-12 weeks of age) were obtained from the Roswell Park's Center For Immunotherapy breeding colonies. […] Tumor volume was monitored weekly with an electronic caliper and calculated as V=(W^2×L)/2, where Vis tumor volume, W is tumor width and L is tumor length. […]
# [2] = tested on: OVA-overexpressing TRAMP C2 cells; assay: Flow cytometry of antigen-bound MHC (OVA-bound H2Kb); format: cell-based, murine; conditions: 48 hours, FIG. 7C-D
# From the text: OVA overexpression: Soluble ovalbumin (OVA) gene, which was amplified from pCI-neo-sOVA (Addgene plasmid 25098), and monomeric enhanced green fluorescent protein (mEGFP) gene, which was amplified from mEGFP-N1 (Addgene plasmid 54767), were genetically fused via P2A translational skipping sequence and cloned in the Sleeping Beauty transposon plasmid with the human elongation factor 1α promoter. This plasmid, pT2-EF-OVA-mEGFP, was electroporated together with the Sleeping Beauty Transposase plasmid, pCMV(CAT)T7-SB100 (a gift from Zsuzsanna Izsvak; Addgene plasmid #34879), into TRAMP-C2 by Nucleofector 4D instrument. The electroporated cells were kept in maintenance medium (DMEM supplemented with 10% FBS, 0.005 mg/ml bovine insulin, 1 nM DHT and cell sorted based on mGFP expression using FACS Aria I cell sorter. The expression of OVA on sorted cells were confirmed by western blotting using rabbit polyclonal OVA antibody (ab186717) at 1:4000 dilution and flow cytometry using PE anti-mouse H-2K^b bound to SIINFEKL (BioLegend) before incubating with or without MCTP-39 for 48 hours. The expression of OVA was analyzed after 48 hours by flow cytometry using BDLSRIIA cytometer and data was analyzed by FCS express 7 Research Edition.
# TRAMP C2 cells = assay: Flow cytometry of MHC expression after MCTP-39 and IFNg treatment, murine TRAMP C2 cells; format: cell-based; conditions: combined treatment with MCTP-39 and IFNg, FIG. 7B
# Procedure: as §1
# [3] = tested on: TRAMP C2 cells grafted in C57B/6 mice; assay: TRAMP C2 subcutaneous graft in immunocompetent C57B/6 mice; format: in vivo, mouse
# Procedure: as §2
# Mice and in vivo experiments: Male C57B/6J mice (6-8 weeks of age) and NSG mice (10-12 weeks of age) were obtained from the Roswell Park's Center For Immunotherapy breeding colonies. All in vivo experiments were made following institutional and IACUC regulations. In vivo experiments were not blinded. C2 cells (1×10^6 cells/100 μl) were injected subcutaneously into the right flank of male C57BL/6J mice (n=6/group) or NSG mice (n=5/group) using a 27 G needle. Sample size was chosen based on pilot studies and chosen to include the potential loss of mice prior treatment. Tumor volume was monitored weekly with an electronic caliper and calculated as V=(W^2×L)/2, where Vis tumor volume, W is tumor width and L is tumor length. When tumors reached 100 mm^3, mice were randomized prior treatment with either MCTP-39 (10 mg/kg 5×/week/4 weeks) or vehicle control. Mice were euthanized either when tumors reached […] in any dimension, as per Institutional IACUC regulations, when mice show signs of advanced disease or after 4 weeks of treatment. Tumors were harvested and weighted, single cells suspension was prepared using the Tumor dissociation kit (Miltenyi Biotech) as per manufacturing instructions prior flow cytometry analysis.
# Flow cytometry and antibodies: Single cell suspension from tumors was stained the antibodies listed in Table S3 (FIG. 14) for 20 min at 4° C. After staining, cells were washed and fixed with fixation buffer for 15 min at 4° C. followed by washing 2× with FACS buffer. Cells were resuspended in 200 μl of FACS buffer before acquiring data on BDLSR IIA flow cytometer. Data were analyzed using FCS express 7 Research Edition.
# Statistical methods: Survival analysis was performed dividing patients based on the upper/lower 25% of the expression levels of WHSC1, significance, HR and confidence intervals were calculated using cox proportional hazard model available in the R package survival. […] Significance for the AUC analysis was calculated by simulating 10,000 AUCs using randomly selected genes in the RNASeq dataset. The empirical p value was calculated by dividing the number of expected/simulated AUCs higher than our observed value by 10,000 (number of simulations). Significance when comparing two groups was calculated via two-tailed Student's t.test at a significance threshold of 0.05. […]
# [4] = C57B/6 mice, tumors at endpoint, flow cytometry, FIG. 8C
compound,measurement,setting,value
NNc1nc2ccccc2[nH]c1=S [MCTP39],"upregulating HLA-B7, HLA-F, HLA-E, HLA-DQ, HLA-DM",C42 cells,additive effect
same,Tumor growth,[1],limited and non-significant effect; also recorded: Not Significant; also recorded: not observed
same,OVA-bound H2Kb fraction,[2],increased
same,upregulating murine H2Kb I-A/I-E,TRAMP C2 cells,additive effect
same,Tumor growth,"[3]; C57B/6 mice, 10 mg/kg IP for four weeks, p=0.0023, permutation test, FIG. 8A, 10 mg/kg",significantly reduced
same,Tumor weight,"[3]; C57B/6 mice, at endpoint, FIG. 8C",reduced
same,CD8+ T cells infiltration,[3]; [4],increased
same,H2Kb (MHC) expression on the tumor,[3]; [4],increased
same,intratumoral CD8+PD1+ T cells,[3]; preliminary in vivo data,may increase
